Measurements: ChEMBL document CHEMBL1130711, “Identification of novel nucleotide phosphonate analogs with potent anti-HCMV activity” (Bioorg Med Chem Lett, 1998)
≈ marks a conversion by molar mass, not a printed value. One block for each compound: values may come before it.

Assays:
MRC5 [1] = assay: (§1) Compound was tested for cytotoxicity by measuring inhibition of MRC-5 cell proliferation.; format: functional, cell-based; settings: Homo sapiens
MRC5 [2] = assay: as §1; format: functional; settings: Homo sapiens
WI-38 [3] = assay: Compound was tested for antiviral activity against WI-38 cell line using a plaque reduction assay; 10-50; format: functional; settings: Homo sapiens
WI-38 [4] = assay: Compound was tested for antiviral activity against WI-38 cell line using a plaque reduction assay; 0.5-1; format: functional, cell-based; settings: Homo sapiens
WI-38 [5] = assay: (§2) Compound was tested for antiviral activity against WI-38 cell line using a plaque reduction assay; format: functional, cell-based; settings: Homo sapiens
WI-38 [6] = assay: as §2; format: functional; settings: Homo sapiens
WI-38 [7] = assay: Compound was tested for antiviral activity against WI-38 cell line using a plaque reduction assay; 10-100; format: functional; settings: Homo sapiens
WI-38 [8] = assay: Compound was tested for antiviral activity against WI-38 cell line using a plaque reduction assay; 0.1-1; format: functional, cell-based; settings: Homo sapiens
Human betaherpesvirus 5 [9] = assay: Compound was tested for cytotoxicity against human cytomegalovirus (HCMV).; format: functional
Human betaherpesvirus 5 [10] = assay: Compound was tested for antiviral activity against human cytomegalovirus (HCMV).; format: functional, organism-based

SMILES: Nc1nc(O)c2ncn(C[C@@H]3CC[C@H](P(=O)(O)O)O3)c2n1
IC50 (MRC5 [1]): 1.6 µg/mL (≈ 5.08 µM) | CC50 (MRC5 [2]): > 10 µg/mL | CC50 (WI-38 [3]): 10 µg/mL (≈ 31.7 µM) | IC50 (WI-38 [4]): 0.5 µg/mL (≈ 1.59 µM)

SMILES: Nc1ncc2ncn(C[C@@H]3CC[C@H](P(=O)(O)O)O3)c2n1
IC50 (WI-38 [5]): 100 µg/mL (≈ 334 µM) | CC50 (WI-38 [6]): > 100 µg/mL

SMILES: Nc1nc(O)c2ncn(C[C@H]3CC[C@@H](P(=O)(O)O)O3)c2n1
IC50 (WI-38 [5]): > 10 µg/mL | CC50 (WI-38 [6]): 100 µg/mL (≈ 317 µM)

SMILES: Nc1nc(N)c2ncn(C[C@@H]3CC[C@H](P(=O)(O)O)O3)c2n1
IC50 (WI-38 [5]): > 50 µg/mL | CC50 (WI-38 [6]): > 100 µg/mL

SMILES: Nc1nc(O)c2ncn(C[C@H]3CC[C@H](P(=O)(O)O)O3)c2n1
IC50 (WI-38 [5]): > 10 µg/mL | CC50 (WI-38 [6]): > 100 µg/mL

SMILES: Nc1nc(N)c2ncn(C[C@H]3CC[C@H](P(=O)(O)O)O3)c2n1
IC50 (WI-38 [5]): > 50 µg/mL | CC50 (WI-38 [6]): > 100 µg/mL

SMILES: Nc1nc(N)c2ncn(C[C@@H]3CC[C@@H](P(=O)(O)O)O3)c2n1
IC50 (WI-38 [5]): 50 µg/mL (≈ 159 µM) | CC50 (WI-38 [6]): > 100 µg/mL

SMILES: Nc1nc(O)c2ncn(C[C@@H]3CC[C@@H](P(=O)(O)O)O3)c2n1
IC50 (MRC5 [1]): 0.11 µg/mL (≈ 0.349 µM) | CC50 (MRC5 [2]): 28 µg/mL (≈ 88.8 µM) | CC50 (WI-38 [7]): 10 µg/mL (≈ 31.7 µM) | IC50 (WI-38 [8]): 0.1 µg/mL (≈ 0.317 µM)

SMILES: Nc1nc(N)c2ncn(C[C@H]3CC[C@@H](P(=O)(O)O)O3)c2n1
IC50 (WI-38 [5]): > 50 µg/mL | CC50 (WI-38 [6]): > 100 µg/mL

IC50 (Human betaherpesvirus 5 [10]): 45 µg/mL (≈ 142 µM)
SMILES: Nc1nc(O)c2ncn(C[C@@H]3CO[C@H](P(=O)(O)O)O3)c2n1
CC50 (Human betaherpesvirus 5 [9]): > 100 µg/mL

SMILES: Nc1ccn(C[C@@H](CO)OCP(=O)(O)O)c(=O)n1.O.O [CIDOFOVIR]
IC50 (MRC5 [1]): 0.04 µg/mL | CC50 (MRC5 [2]): 19 µg/mL | CC50 (WI-38 [3]): 10 µg/mL | IC50 (WI-38 [8]): 0.1 µg/mL

SMILES: Nc1nc2c(ncn2COC(CO)CO)c(=O)[nH]1 [GANCICLOVIR]
IC50 (MRC5 [1]): 2.1 µg/mL (≈ 8.23 µM) | CC50 (MRC5 [2]): > 100 µg/mL
